Results from ChEMBL document CHEMBL1201862, “PubChem BioAssay data set” (2004).
Activity calls are given as the source filed them.

Key:
[1] = biological target: T1, Heat shock factor protein 1 (Mus musculus, UniProt P38532); test: HSF1 potentiators in luciferase reporter cells, confirmation, cell-based, NIH3T3, luminescence, dose retest (AID 435004); assay type: functional;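 note: stress induced by proteasome inhibitor MG132 added 30 min after compound; luciferase reporter driven by HSF1 response element in NIH3T3 cells; actives raise luminescence as potentiators of the MG132 stress response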
T1 sequence (P38532 whole entry): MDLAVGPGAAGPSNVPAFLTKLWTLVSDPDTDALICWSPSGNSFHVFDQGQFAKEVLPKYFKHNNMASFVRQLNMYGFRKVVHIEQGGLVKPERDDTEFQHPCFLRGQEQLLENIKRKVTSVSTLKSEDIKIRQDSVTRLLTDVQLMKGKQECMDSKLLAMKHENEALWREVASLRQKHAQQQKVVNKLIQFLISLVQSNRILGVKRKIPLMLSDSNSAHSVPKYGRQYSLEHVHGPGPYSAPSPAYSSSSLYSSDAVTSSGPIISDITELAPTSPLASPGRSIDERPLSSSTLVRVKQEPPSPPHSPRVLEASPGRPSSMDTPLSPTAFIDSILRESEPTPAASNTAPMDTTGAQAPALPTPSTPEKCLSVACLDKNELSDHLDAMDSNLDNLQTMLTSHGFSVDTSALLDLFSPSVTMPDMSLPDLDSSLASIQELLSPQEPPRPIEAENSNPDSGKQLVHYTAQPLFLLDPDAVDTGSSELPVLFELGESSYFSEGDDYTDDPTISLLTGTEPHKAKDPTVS

Protein skinhead-1 = biological target: T2, Protein skinhead-1 (Caenorhabditis elegans, UniProt P34707); assay type: functional
T2 sequence (P34707 whole entry): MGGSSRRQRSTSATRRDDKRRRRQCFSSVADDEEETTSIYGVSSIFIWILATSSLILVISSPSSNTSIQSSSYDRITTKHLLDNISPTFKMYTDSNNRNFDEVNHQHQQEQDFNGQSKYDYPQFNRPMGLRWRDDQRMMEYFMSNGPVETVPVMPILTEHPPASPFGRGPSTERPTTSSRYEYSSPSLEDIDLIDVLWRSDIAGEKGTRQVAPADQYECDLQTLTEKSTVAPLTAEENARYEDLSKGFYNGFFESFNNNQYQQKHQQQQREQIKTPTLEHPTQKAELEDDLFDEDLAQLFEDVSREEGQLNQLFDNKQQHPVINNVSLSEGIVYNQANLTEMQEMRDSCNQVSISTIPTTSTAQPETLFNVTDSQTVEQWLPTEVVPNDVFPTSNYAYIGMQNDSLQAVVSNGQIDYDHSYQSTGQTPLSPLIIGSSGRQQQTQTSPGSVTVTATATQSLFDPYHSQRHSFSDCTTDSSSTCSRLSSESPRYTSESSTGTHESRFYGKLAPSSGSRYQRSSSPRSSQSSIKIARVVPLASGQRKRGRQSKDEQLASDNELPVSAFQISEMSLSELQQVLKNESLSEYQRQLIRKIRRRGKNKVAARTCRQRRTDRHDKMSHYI

Protein RecA = biological target: T3, Protein RecA (Mycobacterium tuberculosis, UniProt P9WHJ3); test: Fluorescence Cell-Free Homogeneous Dose Retest to Identify Inhibitors of RecA-Intein Splicing Activity. [Related pubchem assays (depositor defined):AID2097, AID2223, AID489010, AID492950]; assay type: functional
T3 sequence (P9WHJ3 whole entry): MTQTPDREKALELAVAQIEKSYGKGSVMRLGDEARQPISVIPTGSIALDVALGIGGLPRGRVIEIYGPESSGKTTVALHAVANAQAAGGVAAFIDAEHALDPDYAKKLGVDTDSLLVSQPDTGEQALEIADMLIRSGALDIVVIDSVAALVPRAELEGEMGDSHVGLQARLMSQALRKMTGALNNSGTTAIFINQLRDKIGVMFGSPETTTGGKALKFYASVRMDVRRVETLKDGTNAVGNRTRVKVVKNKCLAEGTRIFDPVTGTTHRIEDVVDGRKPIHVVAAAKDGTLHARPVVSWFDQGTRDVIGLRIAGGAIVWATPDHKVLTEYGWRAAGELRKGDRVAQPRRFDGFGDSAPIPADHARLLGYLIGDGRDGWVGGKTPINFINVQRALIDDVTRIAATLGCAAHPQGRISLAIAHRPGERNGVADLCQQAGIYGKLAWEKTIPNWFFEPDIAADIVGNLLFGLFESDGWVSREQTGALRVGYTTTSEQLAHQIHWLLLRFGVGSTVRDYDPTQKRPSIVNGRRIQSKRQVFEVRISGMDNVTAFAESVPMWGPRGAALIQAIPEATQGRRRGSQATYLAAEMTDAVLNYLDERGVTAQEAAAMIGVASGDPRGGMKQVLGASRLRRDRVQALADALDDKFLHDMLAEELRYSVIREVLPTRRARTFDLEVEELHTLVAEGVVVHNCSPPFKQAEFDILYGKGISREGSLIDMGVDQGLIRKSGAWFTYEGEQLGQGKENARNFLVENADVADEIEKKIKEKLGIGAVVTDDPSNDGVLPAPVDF

[2] = biological target: T4, Replicative DNA helicase DnaB (Mycobacterium tuberculosis, UniProt P9WMR3); test: DnaB intein splicing inhibitors, dose response, biochemical, cell-free fluorescence (AID 449749); assay type: functional
T4 sequence (P9WMR3 whole entry): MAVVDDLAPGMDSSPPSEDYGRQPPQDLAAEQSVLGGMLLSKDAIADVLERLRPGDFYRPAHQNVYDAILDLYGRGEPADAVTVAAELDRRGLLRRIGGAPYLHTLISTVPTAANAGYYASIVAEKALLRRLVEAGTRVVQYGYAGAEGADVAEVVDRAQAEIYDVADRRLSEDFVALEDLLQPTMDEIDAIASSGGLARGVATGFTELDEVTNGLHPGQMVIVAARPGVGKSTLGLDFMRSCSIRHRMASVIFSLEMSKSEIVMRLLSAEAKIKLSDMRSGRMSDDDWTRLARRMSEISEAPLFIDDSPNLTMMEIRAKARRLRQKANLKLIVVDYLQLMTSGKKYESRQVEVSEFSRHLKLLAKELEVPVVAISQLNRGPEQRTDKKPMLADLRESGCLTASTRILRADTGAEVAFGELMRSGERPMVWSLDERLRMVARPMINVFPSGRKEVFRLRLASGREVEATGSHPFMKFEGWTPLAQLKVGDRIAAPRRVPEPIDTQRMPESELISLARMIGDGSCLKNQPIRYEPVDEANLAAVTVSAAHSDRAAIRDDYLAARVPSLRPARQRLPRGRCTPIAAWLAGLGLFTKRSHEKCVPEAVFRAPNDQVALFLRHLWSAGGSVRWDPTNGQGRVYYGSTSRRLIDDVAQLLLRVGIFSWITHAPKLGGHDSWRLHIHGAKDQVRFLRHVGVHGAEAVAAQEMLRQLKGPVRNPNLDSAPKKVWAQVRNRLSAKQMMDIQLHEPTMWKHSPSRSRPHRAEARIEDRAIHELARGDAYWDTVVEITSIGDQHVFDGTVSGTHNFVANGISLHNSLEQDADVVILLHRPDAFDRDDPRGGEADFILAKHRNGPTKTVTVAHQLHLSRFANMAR

[3] = Luminescence Cell-Based Dose Retest to Confirm Inhibitors of Cancer Stem Cells. [Related pubchem assays (depositor defined):AID2717, AID2721]; assay type: functional; conditions: Homo sapiens
H4 = test: Luminescence Cell-Based Dose Response HTS to Identify Activators of 5'UTR Stem-Loop Driven Prion Protein mRNA Translation in H4 Neuroglioblastoma Cells. [Related pubchem assays: 1829 (Project Summary), 1814 (Primary HTS)]; assay type: functional; conditions: Homo sapiens
[4] = Luminescence Cell-Based Dose Response HTS to Identify Activators of Luciferase Translation or Activity in H4 […] Cells. [Related pubchem assays: 1829 (Project Summary), 1814 (Primary HTS)]; assay type: functional
Cytochrome P450 2C9 = Cytochrome P450 2C9 (Homo sapiens, UniProt P11712)
Cytochrome P450 3A4 = Cytochrome P450 3A4 (Homo sapiens, UniProt P08684);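 note: CYP3A4 tested as one member of a cytochrome P450 panel screen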
[5] = NIH-3T3 fibroblast cytotoxicity, dose response, cytotoxicity control, cell-based, fluorescence, Alamar Blue, secondary assay (AID 2327); assay type: functional;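 note: NIH-3T3 mouse fibroblasts cultured with fluconazole at 8 µg/mL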
[6] = C. albicans growth with fluconazole, confirmation, fluorescence, retest (AID 2467); assay type: functional, cell-based
[7] = HEp-2 cell cytotoxicity, dose response, cytotoxicity control for RSV inhibitor project, HTS (AID 2410); assay type: functional; conditions: human respiratory syncytial virus
[8] = control 3'UTR Renilla luciferase suppression, dose response, counter-screen for Shn3 inhibitor project, cell-based, Clone20-Shn3RL, cherry-picked (AID 624133); assay type: functional
[9] = Shn3 3'UTR reporter inhibitors, dose response, cell-based, Clone20 osteoblasts, firefly luciferase, cherry-picked (AID 624132); assay type: functional;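 note: firefly luciferase luminescence from reporter carrying the Shn3 3'UTR in osteoblasts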
[10] = inhibitors of intracellular T. cruzi replication, confirmation, NIH3T3 host cells, beta-gal luminescence (AID 2044); assay type: functional, cell-based;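 note: intracellular parasites grown in NIH/3T3 mouse fibroblasts as host cells; luminescent beta-galactosidase reporter signal from transgenic T. cruzi replicating inside host cells; inhibitors lower the luminescence signal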
[11] = cytotoxicity toward NIH3T3 fibroblasts, dose response, counter-screen, cell-based, ATP luminescence, mouse fibroblasts (AID 2010); assay type: functional;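 note: cells exposed to compound for about 90 hours before reading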
[12] = inhibitors of HIV Env-driven cell fusion, dose response, cherry-pick (AID 652057); assay type: functional, cell-based

Sequence of Cytochrome P450 2C9 (P11712 whole entry): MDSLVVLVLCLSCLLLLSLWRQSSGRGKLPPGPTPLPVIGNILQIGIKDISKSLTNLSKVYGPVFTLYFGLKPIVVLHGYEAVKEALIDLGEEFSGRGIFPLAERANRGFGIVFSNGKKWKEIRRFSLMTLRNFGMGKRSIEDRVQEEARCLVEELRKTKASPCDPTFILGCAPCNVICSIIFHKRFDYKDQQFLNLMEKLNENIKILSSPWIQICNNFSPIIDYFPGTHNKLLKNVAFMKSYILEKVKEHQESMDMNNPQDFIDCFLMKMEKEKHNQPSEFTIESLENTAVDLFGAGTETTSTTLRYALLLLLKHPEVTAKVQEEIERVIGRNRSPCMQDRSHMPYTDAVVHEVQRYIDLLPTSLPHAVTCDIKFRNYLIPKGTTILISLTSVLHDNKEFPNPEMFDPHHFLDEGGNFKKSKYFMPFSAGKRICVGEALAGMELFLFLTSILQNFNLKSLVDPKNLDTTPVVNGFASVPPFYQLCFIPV
Sequence of Cytochrome P450 3A4 (P08684 whole entry): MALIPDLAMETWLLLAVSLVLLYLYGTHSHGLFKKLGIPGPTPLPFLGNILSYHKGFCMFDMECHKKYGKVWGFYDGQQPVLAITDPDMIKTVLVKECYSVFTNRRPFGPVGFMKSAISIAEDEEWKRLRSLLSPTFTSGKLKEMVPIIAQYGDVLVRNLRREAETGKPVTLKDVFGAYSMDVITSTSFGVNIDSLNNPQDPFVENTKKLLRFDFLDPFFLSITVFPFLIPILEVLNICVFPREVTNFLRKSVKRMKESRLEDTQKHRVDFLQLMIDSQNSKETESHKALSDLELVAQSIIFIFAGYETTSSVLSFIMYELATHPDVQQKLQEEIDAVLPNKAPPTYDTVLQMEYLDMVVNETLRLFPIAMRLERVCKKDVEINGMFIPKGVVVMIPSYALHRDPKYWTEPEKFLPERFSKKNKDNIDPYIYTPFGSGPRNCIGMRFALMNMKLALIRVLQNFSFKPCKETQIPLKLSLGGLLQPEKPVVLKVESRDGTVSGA

O=C1NC(=O)[C@]2(Cc3ccccc3N3CCN(c4ccccc4)CC32)C(=O)N1Cc1ccccc1 (stereo partly specified)
EC50 [1]: > 260 µM (inactive)

Cn1c(CN2CCN(C(=O)c3ccc(F)cc3)CC2)nc2cc([N+](=O)[O-])ccc21
EC50 [1]: > 260 µM (inactive)

Cc1nc(-c2cccc(NC(=O)c3ccco3)c2)cs1
IC50 (Protein skinhead-1): > 100 µM (inactive)

Cc1cc(-c2ccccc2)nc2cc(C(=O)N(Cc3ccccc3)Cc3ccccc3)nn12
EC50 (Protein RecA): > 380 µM (inactive) | AC50 [2]: > 120 µM (inactive) | AC50 [3]: 4.86 µM (active)

Clc1ccc(-c2cc(CSc3ccccc3)on2)cc1
IC50 (Protein skinhead-1): 20 µM (active)

CCCn1c(C)cc(C(=O)CSc2nc3ccccc3c(=O)n2Cc2ccco2)c1C
EC50 (H4): 5 µM (active) | EC50 [4]: 0.112 µM (active)

COc1ccc(C(C(=O)NC2CCCC2)N(C(=O)c2snc(-c3ccc(F)cc3)c2N)c2ccc(F)cc2)cc1 (stereo unspecified)
AC50 (Cytochrome P450 2C9): 1.78 µM (inconclusive) | AC50 (Cytochrome P450 3A4): 12.6 µM (inconclusive) | IC50 (Protein skinhead-1): > 100 µM (inactive)

CCCOc1ccc(C(=O)C2=C(O)C(=O)N(c3cc(C)on3)C2c2ccc(C(=O)OC)cc2)cc1 (stereo unspecified)
IC50 (Protein skinhead-1): > 100 µM (inactive)

CCOCCCNC(=O)c1ccc(N(C)S(=O)(=O)c2ccc(OC)cc2)cc1
EC50 [5]: > 160 µM (inactive) | EC50 [6]: > 38 µM (not active)

CCCCNc1nc(Nc2ccc(C)c(Cl)c2)c2cnn(C)c2n1
EC50 [1]: > 260 µM (inactive) | CC50 [7]: 6.78 µM (active) | AC50 [3]: 9.2 µM (active)

CCCc1cc2nnc(SCC(=O)N(C)C3CCCCC3)n2c(N)n1
IC50 (Protein skinhead-1): > 100 µM (inactive)

Cc1ccc(C(=O)/C=C/c2ccc(-c3ccc(C)cc3)o2)cc1
AC50 [8]: 14.3 µM (active) | AC50 [9]: 2.79 µM (active)

N#CC1=C(N)N(c2ccccc2)C(c2ccccc2)C1(C#N)C#N (stereo unspecified)
EC50 (Protein RecA): 11.6 µM (active) | AC50 [2]: 7.51 µM (active)

CC12CCC(=O)N1C(C(=O)Nc1cccc3ccccc13)CS2 (stereo unspecified)
EC50 [1]: > 260 µM (inactive)

Cc1ccc(CNC(=O)c2cn(C3CCCCC3)c(=O)c3c2c2ccccc2n3C)o1
EC50 [1]: 51.7 µM (active) | CC50 [7]: 23.3 µM (active)

CC(C)(C)c1ccc(C2=CSC3=NCCN23)cc1
IC50 (Protein skinhead-1): > 100 µM (inactive)

CCC(=O)Nc1ccc2nn(-c3ccc(F)cc3)nc2c1
EC50 [10]: 4.4 µM (active) | EC50 [1]: > 260 µM (inactive) | EC50 [11]: > 60 µM (not active)

Cc1cc2cc(CNC(=O)c3cccc([N+](=O)[O-])c3)ccc2n1C
IC50 (Protein skinhead-1): > 100 µM (inactive)

COC(=O)c1ccc(C(=O)OC)c(-n2c(=O)c3ccccc3c3ccccc3c2=O)c1
EC50 (Protein RecA): 18.5 µM (active) | AC50 [2]: 8.61 µM (active)

CCC(C)Nc1nc(Cl)nc(N(C#N)CN2C(=O)c3ccccc3S2(=O)=O)n1 (stereo unspecified)
EC50 (Protein RecA): 18.2 µM (active) | AC50 [2]: 14 µM (active)

Cn1c(Sc2ccc(C(F)(F)F)cc2[N+](=O)[O-])nnc1-c1ccccc1
EC50 [1]: > 260 µM (inactive)

O=C1CC2(CCN(C(=O)c3ccccc3F)CC2)Oc2ccccc21
AC50 [8]: 30.8 µM (active) | AC50 [9]: 65.8 µM (active)

Cc1cc(C)n(CC(O)COc2ccc(Cl)cc2Cl)n1 (stereo unspecified)
EC50 [1]: 116 µM (active)

CCCNC(=O)c1ccc2c(O)c(O)c(-c3ccc(OC)cc3)nc2c1
EC50 [5]: > 150 µM (inactive) | EC50 [6]: > 38 µM (not active)

O=C(Oc1ccc(N2C(=O)C3C4CCC(C4)C3C2=O)cc1)c1ccco1 (stereo unspecified)
EC50 (Protein RecA): 13 µM (active) | AC50 [2]: 28.2 µM (active)

N#Cc1ccccc1OCC(O)CS(=O)(=O)c1ccccc1 (stereo unspecified)
IC50 (Protein skinhead-1): > 100 µM (inactive)

CC(=O)Nc1ccc2c(c1)Cc1c-2cc(Br)c(N)c1Br
IC50 (Protein skinhead-1): > 100 µM (inactive)

COc1ccc(S(=O)(=O)N(C)C[C@H]2Oc3cc(C4=CCCC4)ccc3S(=O)(=O)N([C@@H](C)CO)C[C@H]2C)cc1
AC50 [12]: 16.4 µM (active)

CCn1c(C)nc2cc(C(=O)N/N=C/c3cccc(OC)c3O)ccc21
EC50 [5]: 16.2 µM (active) | EC50 [6]: > 38 µM (not active) | AC50 [3]: 8.16 µM (active)

COc1ccc(/C=N/OCC(=O)Nc2nc3ccccc3s2)cc1
EC50 [5]: > 150 µM (inactive) | EC50 [6]: 4.97 µM (active)
